From patent US20100292255A1, “Therapeutic Compounds and Their Use in Treating Diseases and Disorders” (Myriad Pharmaceuticals, Inc., priority 2007, published 2010)

What follows are molecules tested on T1, purified human Hsp90 (assay: Hsp90 binding assay: displacement of BODIPY-labeled geldanamycin measured by fluorescence polarization). Settings: 5 μM compound; BODIPY-GM 10 nM, Hsp90 30 nM, overnight at room temperature.
T1 construct: purified human Hsp90 (Stressgen, SPP-770)
Protocol: Binding of the Example Compounds to purified Hsp90 was assayed by measuring the displacement of BODIPY-labeled geldanamycin (BODIPY-GM) from purified human Hsp90, using a fluorescence polarization assay adapted from Kim et al. (J. Biomolec. Screening, 9(5):375-381 (2004)). Compound dilutions (in 100% DMSO) were added to black-bottom 96-well plates (Greiner Bio-One, Monroe, N.C.) in 2% DMSO final, and equal volumes of BODIPY-GM (10 nM final) and purified human Hsp90 (Stressgen, SPP-770; 30 nM final) (Assay Designs, Ann Arbor, Mich.) in assay buffer (20 mM HEPES-KOH pH 7.3, 50 mM KCl, 5 mM MgCl2, 20 mM Na2MoO4, 0.01% NP-40, 0.1 mg/mL bovine gamma globulin [P2045; Invitrogen, Carlsbad, Calif.], 2 mM DTT) were added sequentially to yield a final volume of 50 microliters. Plates were incubated overnight at room temperature. Parallel and perpendicular fluorescence measurements were read (Analyst AD plate reader; LJL BioSystems, Middletown, Conn.) with excitation/emission wavelengths of 485/530 nm. Background fluorescence (buffer only) was subtracted, and fluorescence polarization (FP) values, expressed in mP units, were calculated from parallel and perpendicular fluorescence readings as follows:
FP=(parallel−perpendicular)/(parallel+perpendicular)*1000.
Percent inhibition was calculated by normalizing the FP values to those obtained in parallel reactions containing DMSO and subtracting these normalized values from 100%. Intrinsic compound fluorescence was independently monitored, and FP data points confounded by compound fluorescence were excluded from the analysis.

| GM displacement from purified Hsp90 measured by FP Inhibition by 5 μM compd. (%) | SMILES |
| --- | --- |
| 24.0 | N#Cc1cc2c(cc1Sc1nc3c(N)ncn(CCC4CCN(C=O)CC4)c-3n1)CCC2=O [compound 2, 6-({6-amino-3-[2-(1-formylpiperidin-4-yl)ethyl]-3H-purin-8-yl}thio)-3-oxoindane-5-carbonitrile] |
| 38.0 | CS(=O)(=O)N1CCCC(CCn2cnc(N)c3nc(Sc4cc5c(cc4Br)OCCO5)nc2-3)C1 (stereo not shown) [compound 13, 8-[(7-Bromo-2,3-dihydro-1,4-benzodioxin-6-yl)thio]-3-{2-[1-(methylsulfonyl)piperidin-3-yl]ethyl}-3H-purin-6-amine] |
| 73.0 | CCCN1CCCCC1CCn1cnc(N)c2nc(Sc3cc4c(cc3Br)OCCO4)nc1-2 (stereo not shown) [compound 16, 8-[(7-Bromo-2,3-dihydro-1,4-benzodioxin-6-yl)thio]-3-[2-(1-propylpiperidin-2-yl)ethyl]-3H-purin-6-amine] |
| 33.0 | CS(=O)(=O)N1CCC(CCn2cnc(N)c3nc(Sc4cc5c(cc4Br)OCCO5)nc2-3)CC1 [compound 17, 8-[(7-Bromo-2,3-dihydro-1,4-benzodioxin-6-yl)thio]-3-{2-[1-(methylsulfonyl)piperidin-4-yl]ethyl}-3H-purin-6-amine] |
| 10.0 | COc1ccc(Br)c(Sc2nc3c(N)ncn(CCC4CCN(C(C)=O)CC4)c-3n2)c1 [compound 19, 3-[2-(1-Acetylpiperidin-4-yl)ethyl]-8-[(2-bromo-5-methoxyphenyl)thio]-3H-purin-6-amine] |
| 46.0 | Cn1nnnc1N1CCC(CCn2cnc(N)c3nc(Sc4cc5c(cc4Br)OCCO5)nc2-3)CC1 [compound 22, 8-[(7-Bromo-2,3-dihydro-1,4-benzodioxin-6-yl)thio]-3-{2-[1-(1-methyl-1H-tetrazol-5-yl)piperidin-4-yl]ethyl}-3H-purin-6-amine] |
| 28.0 | CC(C)C(=O)N1CCC(CCn2cnc(N)c3nc(Sc4cc5c(cc4Br)OCCO5)nc2-3)CC1 [compound 24, 8-[(7-Bromo-2,3-dihydro-1,4-benzodioxin-6-yl)thio]-342-(1-isobutyrylpiperidin-4-ypethyl]-3H-purin-6-amine] |
| 55.0 | CC(C)C(=O)N1CCC(CCn2cnc(N)c3nc(Sc4cc5c(cc4Br)OCO5)nc2-3)CC1 [compound 26, 8-[(6-Bromo-1,3-benzodioxol-5-yl)thio]-3-[2-(1-isobutyrylpiperidin-4-yl)ethyl]-3H-purin-6-amine] |

Same assay, conditions: BODIPY-GM 10 nM, Hsp90 30 nM, overnight at room temperature; read-out: GM displacement from purified Hsp90 measured by FP IC 50

| SMILES | IC50 [µM] |
| --- | --- |
| COc1cc(Br)c(Sc2nc3c(N)ncnc3n2CCC2CCN(C(=O)[C@H](C)O)CC2)cc1OC [Example Compound 208, (2S)-1-[4-(2-{6-Amino-8-[(2-bromo-4,5-dimethoxyphenyl)thio]-9H-purin-9-yl}ethyl)piperidin-1-yl]-1-oxopropan-2-ol] | > 5 |
| C[C@H](O)C(=O)N1CCC(CCn2c(Sc3cc(O)c(O)cc3Br)nc3c(N)ncnc32)CC1 [Example Compound 209, 4-{[6-Amino-9-(2-{1-[(2S)-2-hydroxypropanoyl]piperidin-4-yl}ethyl)-9H-purin-8-yl]thio}-5-bromobenzene-1,2-diol] | 2.1 |
| Nc1ncnc2c1nc(Sc1cc3c(cc1Br)OCO3)n2C1CCNCC1 [Example Compound 211, 8-[(6-Bromo-1,3-benzodioxol-5-yl)thio]-9-piperidin-4-yl-9H-purin-6-amine] | 0.95 |
| C[C@H](O)C(=O)N1CCC(n2c(Sc3cc4c(cc3Br)OCO4)nc3c(N)ncnc32)CC1 [Example Compound 212, (2S)-1-(4-{6-amino-8-[(6-bromo-1,3-benzodioxol-5-yl)thio]-9H-purin-9-yl}piperidin-1-yl)-1-oxopropan-2-ol] | 0.35 |
| Nc1ncnc2c1nc(Sc1cc3c(cc1Br)OCO3)n2C1CCN(C=O)CC1 [Example Compound 213, 4-{6-Amino-8-[(6-bromo-1,3-benzodioxol-5-yl)thio]-9H-purin-9-yl}piperidine-1-carbaldehyde] | 0.58 |
| N#Cc1cc2c(cc1Sc1nc3c(N)ncnc3n1CCC1CCN(C=O)CC1)CCC2=O [compound 1, 6-({6-Amino-9-[2-(1-formylpiperidin-4-yl)ethyl]-9H-purin-8-yl}thio)-3-oxoindane-5-carbonitrile] | 0.23 |
| COCCOCC(=O)N1CCC(CCn2c(Sc3cc4c(cc3Br)OCCO4)nc3c(N)ncnc32)CC1 [compound 3, 8-[(7-Bromo-2,3-dihydro-1,4-benzodioxin-6-yl)thio]-9-(2-{1-[(2-methoxyethoxy)acetyl]piperidin-4-yl}ethyl)-9H-purin-6-amine] | 0.08 |
| Nc1ncnc2c1nc(Sc1cc3c(cc1Br)OCCO3)n2CCC1CCN(C(=O)C2CC2(F)F)CC1 (stereo not shown) [compound 8, 8-[(7-Bromo-2,3-dihydro-1,4-benzodioxin-6-yl)thio]-9-(2-{1-[(2,2-difluorocyclopropyl)carbonyl]piperidin-4-yl}ethyl)-9H-purin-6-amine] | 0.09 |
| CS(=O)(=O)N1CCCCC1CCn1c(Sc2cc3c(cc2Br)OCCO3)nc2c(N)ncnc21 (stereo not shown) [compound 10, 8-[(7-Bromo-2,3-dihydro-1,4-benzodioxin-6-yl)thio]-9-{2-[1-(methylsulfonyl)piperidin-2-yl]ethyl}-9H-purin-6-amine] | 0.16 |
| CS(=O)(=O)N1CCCC(CCn2c(Sc3cc4c(cc3Br)OCCO4)nc3c(N)ncnc32)C1 (stereo not shown) [compound 12, 8-[(7-Bromo-2,3-dihydro-1,4-benzodioxin-6-yl)thio]-9-{2-[1-(methylsulfonyl)piperidin-3-yl]ethyl}-9H-purin-6-amine] | 0.065 |
| CCN(CC)C(=O)CN1CCC(CCn2c(Sc3cc4c(cc3Br)OCCO4)nc3c(N)ncnc32)CC1 [compound 27, 2-[4-(2-{6-Amino-8-[(7-bromo-2,3-dihydro-1,4-benzodioxin-6-yl)thio]-9H-purin-9-yl}ethyl)piperidin-1-yl]-N,N-diethylacetamide] | 0.11 |

Now from value to molecule:

| IC50 [µM] | SMILES |
| --- | --- |
| 0.497 | Nc1ncnc2c1nc(Sc1cc3c(cc1Cl)OCO3)n2CCC1CCN(C(=O)CO)CC1 [Example Compound 205, 2-[4-(2-{6-Amino-8-[(6-chloro-1,3-benzodioxol-5-yl)thio]-9H-purin-9-yl}ethyl)piperidin-1-yl]-2-oxoethanol] |
| > 5 | C[C@H](O)C(=O)N1CCCC[C@@H]1CCn1c(Sc2cc3c(cc2Br)OCO3)nc2c(N)ncnc21 [Example Compound 206, (2S)-1-[(2R)-2-(2-{6-Amino-8-[(6-bromo-1,3-benzodioxol-5-yl)thio]-9H-purin-9-yl}ethyl)piperidin-1-yl]-1-oxopropan-2-ol] |
| > 5 | C[C@H](O)C(=O)N1CCCC[C@H]1CCn1c(Sc2cc3c(cc2Br)OCO3)nc2c(N)ncnc21 [Example Compound 207, (2S)-1-[(2S)-2-(2-{6-Amino-8-[(6-bromo-1,3-benzodioxol-5-yl)thio]-9H-purin-9-yl}ethyl)piperidin-1-yl]-1-oxopropan-2-ol] |
| 0.08 | CO[C@@H](C)C(=O)N1CCC(CCn2c(Sc3cc4c(cc3Br)OCCO4)nc3c(N)ncnc32)CC1 [compound 4, 8-[(7-Bromo-2,3-dihydro-1,4-benzodioxin-6-yl)thio]-9-(2-{1-[(2S)-2-methoxypropanoyl]piperidin-4-yl}ethyl)-9H-purin-6-amine] |
| 0.063 | COCCC(=O)N1CCC(CCn2c(Sc3cc4c(cc3Br)OCCO4)nc3c(N)ncnc32)CC1 [compound 5, 8-[(7-Bromo-2,3-dihydro-1,4-benzodioxin-6-yl)thio]-9-{2-[1-(3-methoxypropanoyl)piperidin-4-yl]ethyl}-9H-purin-6-amine] |
| 0.07 | COCC(=O)N1CCC(CCn2c(Sc3cc4c(cc3Br)OCCO4)nc3c(N)ncnc32)CC1 [compound 6, 8-[(7-Bromo-2,3-dihydro-1,4-benzodioxin-6-yl)thio]-9-{2-[1-(methoxyacetyl)piperidin-4-yl]ethyl}-9H-purin-6-amine] |
| 0.095 | CO[C@H](C)C(=O)N1CCC(CCn2c(Sc3cc4c(cc3Br)OCCO4)nc3c(N)ncnc32)CC1 [compound 7, 8-[(7-Bromo-2,3-dihydro-1,4-benzodioxin-6-yl)thio]-9-(2-{1-[(2R)-2-methoxypropanoyl]piperidin-4-yl}ethyl)-9H-purin-6-amine] |
| 0.195 | CC(C)C(=O)N1CCC(CCn2c(Sc3cc4c(cc3Br)OCCO4)nc3c(N)ncnc32)CC1 [compound 23, 8-[(7-Bromo-2,3-dihydro-1,4-benzodioxin-6-yl)thio]-9-[2-(1-isobutyrylpiperidin-4-yl)ethyl]-9H-purin-6-amine] |
| 0.11 | CC(C)C(=O)N1CCC(CCn2c(Sc3cc4c(cc3Br)OCO4)nc3c(N)ncnc32)CC1 [compound 25, 8-[(6-Bromo-1,3-benzodioxol-5-yl)thio]-9-[2-(1-isobutyrylpiperidin-4-yl)ethyl]-9H-purin-6-amine] |
